Assay results from patent publication US20230141718A1, “METHODS OF TREATING GLIOBLASTOMA” (CELGENE QUANTICEL RESEARCH, INC., priority 2021, published 2023).
“And” between values parts separate entries of the source, which are not always exact repeats. Equal entries are not always repeated. “Also recorded” adds a separate entry of the source. Where two headings read alike, the source gives them in different places.

How the values were obtained:
Type in all cases: in vivo, human
[1] = Plasma pharmacokinetics of Compound A, CC-90010-GBM-001 study
Excerpt: (§1) The primary objectives of the study in this example were determination of tumor tissue concentration and plasma pharmacokinetics (PK) of Compound A. The secondary and exploratory objectives included safety, antitumor activity, cerebrospinal fluid concentration, and pharmacodynamics (PD).
The study described in this example (CC-90010-GBM-001 study/NCT04047303) enrolled patients with progressive or recurrent astrocytoma or recurrent glioblastoma who have failed radiation and chemotherapy, and who are candidates for surgical tumor resection as part of their salvage regimen.
(§2) Patients were treated with Compound A at 30 mg daily on Day 1 to Day 4 prior to undergoing indicated tumor resection and to maintain platelet count above the minimum of […] recommended for surgery (Part A, preoperative treatment). Following recovery from surgery and a minimum of 4 weeks from the first dose of Compound A, subjects who were fit to continue were treated with Compound A at 45 mg on a 4 days on/24 days off schedule (180 mg per 28-day cycle). Maintenance treatment continued until disease progression, unacceptable toxicity, or withdrawal of consent.
The blood PK, blood PD, tumor PK and tumor PD data were available for 20, 12, 20, and 11 patients, respectively.

[2] = Brain tumor tissue, plasma and CSF concentration at resection, CC-90010-GBM-001
Description: as §1, §2
The geometric mean peak of Compound A plasma concentration on Day 4 was 1.90 μM, and the median time to peak concentration was 1.75 hours. The median time from the day 4 dose of Compound A to resection was 23 hours (range, 4.6-31.3). […] At the time of resection, the geometric mean concentrations of Compound A in plasma and brain tumor tissue were 1.02 and 0.74 μM, respectively. Geometric mean free Compound A concentration in brain tissue was calculated to be 0.028 μM. Geometric mean Compound A concentration in CSF (cerebrospinal fluid) was 0.14 μM, and the mean CSF:plasma ratio was 0.17. None of the brain tumor tissue samples for PK analyses was confirmed to comprise homogeneous contrast-enhancing or non-enhancing tumor tissue, precluding measurement in these subgroups.
At Cycle 1 Day 4, the concentration of Compound A was measured in resected brain tumor from 20 subjects at 6 to 24-hour post dose. At the time of resection (N=19), the mean (f SDev) concentration of Compound A in plasma was 397 f 77.78 ng/mL (geometric mean: 389.23 ng/mL; coefficient of variation: 20.1%). The mean ratio of compound concentration in the resected brain tissue to compound concentration in plasma is 0.84 f 0.25 for 19 of the 20 subjects.

[3] = Plasma pharmacokinetics of Compound A, CC-90010-GBM-002; set-up: AUC / AUC(0-inf): concentration or dose not given beside the values; conditions: for Cmax / AUC / AUC(0-inf): geometric mean; for tmax: median; for AUC: read-out: AUC24
Excerpt: The primary objectives of the study in this example were to establish the safety, maximum tolerated dose (MTD), and recommended phase 2 dose (RP2D) of Compound A. The preliminary efficacy, pharmacokinetics, and pharmacodynamics were also investigated.
The study described in this example (CC-90010-GBM-002/NCT04324840) is a phase 1B dose-finding study investigating standard of care of Compound A in combination with TMZ with or without radiotherapy (RT) in subjects with newly diagnosed GBM. Part A of the study is escalating the oral doses of Compound A in combination with adjuvant TMZ to estimate the MTD and/or the RP2D of Compound A as adjuvant therapy and escalating the oral doses of Compound A in combination with concomitant TMZ+radiotherapy (RT) to estimate the MTD and/or the RP2D of Compound A as concomitant therapy. Part B of the study is the safety and efficacy of Compound A administered at or below the MTD determined for the adjuvant therapy (AT) and concomitant therapy (CT).
For adjuvant therapy, Compound A and TMZ was administered for 6 cycles, then Compound A as a monotherapy was administered in 28-day cycles until disease progression, start of a new anticancer therapy, or withdrawal of consent or physician's decision. For adjuvant therapy, Compound A was administered at 15, 30, and 45 mg 4 days on/24 days off and TMZ was administered at 150 or 200 mg/m^2 QD Days 1-5, followed by Compound A at 45 mg 4 days on/24 days off. For adjuvant therapy, part B, Compound A was administered at RP2D and TMZ was administered at 150 or 200 mg/m^2, followed by Compound A at 45 mg 4 days on/24 days off.
For concomitant therapy, Compound A, TMZ, and RT were administered for 6 weeks, then 4-week break, followed by adjuvant Compound A and TMZ for 6 cycles then Compound A monotherapy in 28-day cycles until disease progression, start of a new anticancer therapy, withdrawal of consent or physician's decision. For concomitant therapy, part A, Compound A was administered at 15 mg or 30 mg QD Days 1-4 (weeks 1,5), TMZ was administered at 75 mg/m^2/day QD, and RT was administered at 2 Gy QD×5 days/week, for 42 days. This was then followed by a break in treatment therapy, e.g., from 1 to up to 4 weeks. Thereafter, adjuvant therapy was initiated by administering Compound A at 30 mg or 45 mg and TMZ at 150 or 200 mg/m^2 QD Days 1-5 of a 28-day cycle. Adjuvant therapy cycles were repeated from 2 to 6 times. After adjuvant therapy, was a monotherapy treatment. Monotherapy comprised administering Compound A at 45 mg 4 days on/24 days off.
Data presented as geometric mean (geometric CV %) for AUC and Cmax, mean (SD) for t1/2, and median (range) for tmax. AI AUC, accumulation index ratio of exposure measured at Day 4 to that after Day 1; AI Cmax, accumulation index ratio of maximum observed concentration at Day 4 to that after Day 1; AUC24, area under the concentration-time curve within a 24-hour dosing interval; Cmax, maximum observed concentration; NA, not applicable; t1/2, apparent terminal phase half-life.

[4] = human, plasma, oral, LD, Part A
[5] = human, plasma, oral, LD, Part B

## Cn1cc(-c2cc(S(C)(=O)=O)ccc2OCC2CC2)c2ccccc2c1=O [Compound A, 4-[2-(cyclopropylmethoxy)-5-methylsulfonylphenyl]-2-methylisoquinolin-1-one]
[1]; C1D1, 30 mg daily
  GM AUC from 0 to 24 hours (AUC0-24): 5083 ng·h/mL
[1]; C1D4
  Median tmax: 1.9 h
  mean t1/2: 46 h
[1]; C1D4, 30 mg daily
  GM AUC0-24: 11,250 ng h/mL
[1]; Day 4
  geometric mean peak plasma concentration: 1.90 µM
  median time to peak concentration: 1.75 h
[1]; cycle 1, day 1 (C1D1), 30 mg daily
  geometric mean (GM) Cmax: 392 ng/mL
[1]; cycle 1, day 4 (C1D4), 30 mg daily
  GM Cmax: 720 ng/mL
[2]; at the time of resection
  geometric mean concentration in brain tumor tissue: 0.74 µM
  geometric mean concentration in plasma: 1.02 µM
[2]; at the time of resection (N=19)
  geometric mean concentration in plasma: 389.23 ng/mL
[2]; calculated
  Geometric mean free concentration in brain tissue: 0.028 µM
[2]; human, brain tumor tissue, 30 mg, as stated in the comparison with other agents, read-out: brain tumor tissue:plasma ratio
  Kp: 0.14
[2]; in vivo
  Geometric mean concentration in CSF (cerebrospinal fluid): 0.14 µM
  mean CSF:plasma ratio: 0.17
[2]; patients with recurrent high-grade glioma
  BBB / brain tumor tissue penetration: found to penetrate the BBB and was detected in brain tumor tissue; also recorded: good tumor tissue penetration; also recorded: high brain penetrance
[3]; 15, 30, 45 mg with TMZ
  Exposure versus dose: increased proportionally with dose
[3]; D1, GBM-002 (Part A) (n = 6)
  Cmax: 306 ng/mL
[3]; D1, Part A
  tmax: 2.0 h
[3]; Day 4
  Day 4 time to peak Compound A concentration: 0.5 to 2.0 h and 0.5 to 4.0 h
[3]; LD, GBM-002 (Part A) (n = 6)
  Cmax: 822 ng/mL
[3]; LD, Part A, mean
  T1/2: 68 h
[3]; LD, Part A
  tmax: 1.5 h
[3]; Part A
  AI AUC24 (accumulation index ratio, Day 4 to Day 1): 3.05
  AI Cmax (accumulation index ratio, Day 4 to Day 1): 2.69
[3]; Part B
  AI AUC24 (accumulation index ratio, Day 4 to Day 1): 2.61
  AI Cmax (accumulation index ratio, Day 4 to Day 1): 2.11
  effect of coadministration with RT and TMZ on Compound A PK: did not appear to impact Compound A PK
[3]; human, plasma, oral, D1, GBM-002 (Part B) (n = 17), read-out: Cmax
  Cmax: 350 ng/mL
[3]; human, plasma, oral, D1, Part A
  AUC: 4580 ng·h/mL
[3]; human, plasma, oral, D1, Part B
  AUC: 4890 ng·h/mL
[3]; human, plasma, oral, LD, GBM-002 (Part B) (n = 17), read-out: Cmax
  Cmax: 740 ng/mL
[3]; [4]
  AUC(0-inf): 49800 ng·h/mL
  AUC: 13900 ng·h/mL
[3]; [5]
  AUC(0-inf): 48700 ng·h/mL
  AUC: 12700 ng·h/mL
[3]; human, plasma, oral, LD, Part B, mean, read-out: T1/2 (converted)
  half-life: 58 h
[3]; human, plasma, oral, read-out: mean terminal half-life
  half-life: 60 to 70 h
